According to patent US12077503B2, “Substituted cyclic amides and their use as herbicides” (FMC CORPORATION, priority 2015, dated 2024):

Experiments:
Type in all cases: in vivo
[1] = system: Kochia (Kochia scoparia); assay: Test A preemergence
Outline: (§1)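 Ratings of 0 (no effect) to 100 (complete control) come from visual comparison with untreated controls roughly 10 d after treatment. Test chemicals, formulated in a non-phytotoxic solvent mixture with surfactant, were applied either as a preemergence directed soil spray on seeded soil or postemergence to one- to two-leaf plants 2 to 10 cm tall.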

[2] = system: barnyardgrass (Echinochloa crus-galli); assay: Test A preemergence
Outline: as §1

[3] = system: giant foxtail (Setaria faberii); assay: Test A preemergence
Outline: as §1

[4] = system: pigweed (Amaranthus retroflexus); assay: Test A preemergence
[5] = system: ragweed (common ragweed, Ambrosia elatior); assay: Test A preemergence
Outline: as §1

[6] = system: ryegrass, Italian (Italian ryegrass, Lolium multiflorum); assay: Test A preemergence
Outline: as §1

[7] = system: Galium (catchweed bedstraw, Galium aparine); assay: Test A postemergence
Outline: as §1

[8] = system: Kochia (Kochia scoparia); assay: Test A postemergence
Outline: as §1

[9] = system: barnyardgrass (Echinochloa crus-galli); assay: Test A postemergence
Outline: as §1

[10] = system: blackgrass (Alopecurus myosuroides); assay: Test A postemergence
Outline: as §1

[11] = system: corn (Zea mays); assay: Test A postemergence
Outline: as §1

[12] = system: giant foxtail (Setaria faberii); assay: Test A postemergence
Outline: as §1

[13] = system: pigweed (Amaranthus retroflexus); assay: Test A postemergence
Outline: as §1

[14] = system: ragweed (common ragweed, Ambrosia elatior); assay: Test A postemergence
Outline: as §1

[15] = system: ryegrass, Italian (Italian ryegrass, Lolium multiflorum); assay: Test A postemergence
Outline: as §1

[16] = system: wheat (Triticum aestivum); assay: Test A postemergence
Outline: as §1

[17] = system: barnyardgrass (Echinochloa crus-galli); assay: Test B flooded paddy test; conditions: Flood, 250 g ai/ha; 0 to 100 scale where 0 is no effect and 100 is complete control; 13 to 15 d
Outline: (§2)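 Compound goes directly into floodwater once pots are flooded 3 cm above soil, targeting plants at two leaves; the water depth is then held for the test duration. Plants sit 13–15 d in a greenhouse and are rated visually, 100 denoting complete control.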

[18] = system: ducksalad (Heteranthera limosa); assay: Test B flooded paddy test; conditions: Flood, 250 g ai/ha; 0 to 100 scale where 0 is no effect and 100 is complete control; 13 to 15 d
Outline: as §2

[19] = system: rice (Oryra sativa); assay: Test B flooded paddy test; conditions: Flood, 250 g ai/ha; 0 to 100 scale where 0 is no effect and 100 is complete control; 13 to 15 d
Outline: as §2

[20] = system: sedge, umbrella (small-flower umbrella sedge, Cyperus difformis); assay: Test B flooded paddy test; conditions: Flood, 250 g ai/ha; 0 to 100 scale where 0 is no effect and 100 is complete control; 13 to 15 d
Outline: as §2

[21] = 125 g ai/ha, Preemergence, visual injury after approximately 10 d, 0 to 100 scale where 0 is no effect and 100 is complete control
[22] = 500 g ai/ha, preemergence, 0 to 100 scale, 0 = no effect, 100 = complete control
[23] = 125 g ai/ha, postemergence, visual rating after approx. 10 d, 0 to 100 scale (0 no effect, 100 complete control)
[24] = Postemergence, 500 g ai/ha, 0 to 100 scale where 0 is no effect and 100 is complete control
[25] = 125 g ai/ha, preemergence, 0 to 100 scale (0 no effect, 100 complete control)
[26] = Preemergence, 500 g ai/ha, visual injury approx. 10 d
[27] = 125 g ai/ha, postemergence, visual injury rating on 0 to 100 scale (0 no effect, 100 complete control), approx. 10 d
[28] = 500 g ai/ha, postemergence, 0 to 100 scale, 0 no effect, 100 complete control

N#Cc1cccc(C2CNC(=O)C2C(=O)Nc2cccc(F)c2F)c1 (stereo not drawn) [Compound 621]
0: Plant response rating, Kochia [1, 21] | Plant response rating, Pigweed [4, 21] | Plant response rating, Ragweed [5, 21] | Plant response rating, Ryegrass, Italian [6, 21] | Plant response rating, Kochia [8, 23] | Plant response rating, Blackgrass [10, 23] | Plant response rating, Corn [11, 23] | Plant response rating, Pigweed [13, 23] | Plant response rating, Pigweed [13, 24] | Plant response rating, Ragweed [14, 23] | Plant response rating, Ragweed [14, 24] | Plant response rating, Ryegrass, Italian [15, 23] | Plant response rating, Wheat [16, 23] | Plant response rating, Sedge, Umbrella [20]
30: Plant response rating, Galium [7, 23]
90: Plant response rating, Barnyardgrass [2, 21] | Plant response rating, Barnyardgrass [2, 22] | Plant response rating, Foxtail, Giant [3, 21] | Plant response rating, Foxtail, Giant [3, 22] | Plant response rating, Ragweed [5, 22] | Plant response rating, Barnyardgrass [9, 23] | Plant response rating, Barnyardgrass [9, 24] | Plant response rating, Foxtail, Giant [12, 24]
40: Plant response rating, Kochia [1, 22] | Plant response rating, Ryegrass, Italian [6, 22] | Plant response rating, Galium [7, 24]
20: Plant response rating, Pigweed [4, 22] | Plant response rating, Kochia [8, 24] | Plant response rating, Blackgrass [10, 24] | Plant response rating, Corn [11, 24] | Plant response rating, Ryegrass, Italian [15, 24] | Plant response rating, Rice [19]
100: Plant response rating, Ducksalad [18]
70: Plant response rating, Foxtail, Giant [12, 23]
50: Plant response rating, Wheat [16, 24] | Plant response rating, Barnyardgrass [17]

O=C(Nc1cccc(F)c1F)C1C(=S)NCC1c1cccc(C(F)(F)F)c1 (stereo not drawn) [Compound 454]
20: Wheat plant response rating [16, 27]
90: Foxtail, Giant plant response rating (0 to 100 scale, 0 is no effect, 100 is complete control) [3, 26]
40: Plant response rating, Ryegrass, Italian [15, 28] | Plant response rating, Wheat [16, 28] | Plant response rating, Barnyardgrass [17]
15: Plant response rating, Rice [19]
30: Ryegrass, Italian plant response rating (0 to 100 scale, 0 is no effect, 100 is complete control) [6, 26] | Plant response rating, Galium [7, 28]
70: Plant response rating, Barnyardgrass [2, 25] | Plant response rating, Corn [11, 28] | Foxtail, Giant plant response rating [12, 27]
50: Plant response rating, Blackgrass [10, 28] | Corn plant response rating [11, 27]
60: Barnyardgrass plant response rating [9, 27] | Plant response rating, Ducksalad [18]
0: Plant response rating, Kochia [1, 25] | Kochia plant response rating (0 to 100 scale, 0 is no effect, 100 is complete control) [1, 26] | Plant response rating, Pigweed [4, 25] | Pigweed plant response rating (0 to 100 scale, 0 is no effect, 100 is complete control) [4, 26] | Plant response rating, Ragweed [5, 25] | Ragweed plant response rating (0 to 100 scale, 0 is no effect, 100 is complete control) [5, 26] | Plant response rating, Ryegrass, Italian [6, 25] | Galium plant response rating [7, 27] | Kochia plant response rating [8, 27] | Plant response rating, Kochia [8, 28] | Blackgrass plant response rating [10, 27] | Pigweed plant response rating [13, 27] | Plant response rating, Pigweed [13, 28] | Ragweed plant response rating [14, 27] | Plant response rating, Ragweed [14, 28] | Ryegrass, Italian plant response rating [15, 27] | Plant response rating, Sedge, Umbrella [20]
80: Barnyardgrass plant response rating (0 to 100 scale, 0 is no effect, 100 is complete control) [2, 26] | Plant response rating, Foxtail, Giant [3, 25] | Plant response rating, Barnyardgrass [9, 28] | Plant response rating, Foxtail, Giant [12, 28]
